Test results from patent US11339161B2, “Triazolo pyridines as modulators of gamma-secretase” (Boehringer Ingelheim International GmbH, priority 2017, dated 2022).
Read-outs that look alike come from different tables or passages of the source.

Tests used:
[1] = molecular target: FGFR1 (Homo sapiens, UniProt P11362); test: Z'-LYTE SelectScreen biochemical kinase assay FGFR1
From the text: (§1) Thermo Fisher Scientific SelectScreen™ Biochemical Kinase Profiling Service Z′-LYTE™ Screening Protocol and Assay Conditions Assay Theory
(§2) The […] biochemical assay employs a fluorescence-based, coupled-enzyme format and is based on the differential sensitivity of phosphorylated and non-phosphorylated peptides to proteolytic cleavage. The peptide substrate is labeled with two fluorophores—one at each end—that make up a FRET pair. In the primary reaction, the kinase transfers the gamma-phosphate of ATP to a single tyrosine, serine or threonine residue in a synthetic FRET-peptide. In the secondary reaction, a site-specific protease recognizes and cleaves non-phosphorylated FRET-peptides. Phosphorylation of FRET-peptides suppresses cleavage by the Development Reagent. Cleavage disrupts FRET between the donor (i.e., coumarin) and acceptor (i.e., fluorescein) fluorophores on the FRET-peptide, whereas uncleaved, phosphorylated FRET-peptides maintain FRET. A ratiometric method, which calculates the ratio (Emission Ratio=Coumarin emission (445 nm)/Fluorescein emission (520 nm)) of donor emission to acceptor emission after excitation of the donor fluorophore at 400 nm, is used to quantitate reaction progress, as shown in the equation below. A significant benefit of this ratiometric method for quantitating reaction progress is the elimination of well-to-well variations in FRET-peptide concentration and signal intensities. As a result, the assay yields very high Z′-factor values (>0.7) at a low percent phosphorylation. Both cleaved and uncleaved FRET-peptides contribute to the fluorescence signals and therefore to the Emission Ratio. The extent of phosphorylation of the FRET-peptide can be calculated from the Emission Ratio. The Emission Ratio will remain low if the FRET-peptide is phosphorylated (i.e., no kinase inhibition) and will be high if the FRET-peptide is non-phosphorylated (i.e., kinase inhibition).
(§3) The Test Compounds are screened in 1% DMSO (final) in the well. For 10 point titrations, 3-fold serial dilutions are conducted from the starting concentration of the customer's choosing.
(§4) All Peptide/Kinase Mixtures are diluted to a 2× working concentration in the appropriate Kinase Buffer (see section Kinase Specific Assay Conditions for a complete description).
(§5) All ATP Solutions are diluted to a 4× working concentration in Kinase Buffer (50 mM HEPES pH 7.5, 0.01% BRIJ-35, 10 mM MgCl2, 1 mM EGTA). ATP Km apparent is previously determined using a Z″-LYTE assay.
(§6) The Development Reagent is diluted in Development Buffer (see section Kinase-Specific Assay Conditions—Direct and Cascade for a complete description).
(§7) Bar-coded Corning, low volume NBS, black 384-well plate (Corning Cat. #4514) • 1. 100 nL—100× Test Compound in 100% DMSO • 2. 2.4 μL—Kinase buffer • 3. 5 μL—2× Peptide/Kinase Mixture • 4. 2.5 μL—4×ATP Solution • 5. 30—second plate shake • 6. 60—minute Kinase Reaction incubation at room temperature • 7. 5 μL—Development Reagent Solution • 8. 30—second plate shake • 9. 60—minute Development Reaction incubation at room temperature • 10. Read on fluorescence plate reader and analyze the data Z′-LYTE Assay Controls
(§8) SelectScreen Kinase Profiling Service uses XLfit from IDBS. The dose response curve is curve fit to model number 205 (sigmoidal dose-response model).
(§9) The 2×FGFR1/Tyr 04 mixture is prepared in 50 mM HEPES pH 7.5, 0.01% BRIJ-35, 10 mM MgCl2, 4 mM MnCl2, 1 mM EGTA, 2 mM DTT. The final 10 μL Kinase Reaction consists of 0.44-2.45 ng FGFR1 and 2 μM Tyr 04 in 50 mM HEPES pH 7.5, 0.01% BRIJ-35, 10 mM MgCl2, 2 mM MnCl2, 1 mM EGTA, 1 mM DTT. After the 1 hour Kinase Reaction incubation, 5 μL of a 1:64 dilution of Development Reagent B is added.

[2] = molecular target: LYN B (Homo sapiens, UniProt P07948); test: Z'-LYTE SelectScreen biochemical kinase assay LYN B
From the text: as §1, §2, §3, §4, §5, §6, §7, §8
(§10) The 2×LYN B/Tyr 02 mixture is prepared in 50 mM HEPES pH 7.5, 0.01% BRIJ-35, 10 mM MgCl2, 1 mM EGTA. The final 10 μL Kinase Reaction consists of 0.85-14.8 ng LYN B and 2 μM Tyr 02 in 50 mM HEPES pH 7.5, 0.01% BRIJ-35, 10 mM MgCl2, 1 mM EGTA. After the 1 hour Kinase Reaction incubation, 5 μL of a 1:128 dilution of Development Reagent A is added.

[3] = molecular target: CSF1R (FMS) (Homo sapiens, UniProt P07333); test: Z'-LYTE SelectScreen biochemical kinase assay CSF1R (FMS)
From the text: as §1, §2, §3, §4, §5, §6, §7, §8
as §10, with “The 2×CSF1R (FMS)/Tyr 01” for “The 2×LYN B/Tyr 02”, “of 0.2-40” for “of 0.85-14.8”, “ng CSF1R (FMS)” for “ng LYN B”, “Tyr 01” for “Tyr 02”, “a 1:256” for “a 1:128”, “Reagent B” for “Reagent A”

[4] = molecular target: FLT4 (VEGFR3) (Homo sapiens, UniProt P35916); test: Z'-LYTE SelectScreen biochemical kinase assay FLT4 (VEGFR3)
From the text: as §1, §2, §3, §4, §5, §6, §7, §8
as §9, with “2×FLT4 (VEGFR3)/Tyr” for “2×FGFR1/Tyr”, “2-10.5” for “0.44-2.45”, “FLT4 (VEGFR3)” for “FGFR1”

[5] = 10 μmolar compound concentration, ATP at Km app, read-out: FGFR1 inhibition
[6] = read-out: % Inhibition mean FGFR1
[7] = 10 μmolar compound concentration, ATP at Km app, read-out: LYN B inhibition
[8] = read-out: % Inhibition mean LYN B
[9] = 10 μmolar compound concentration, ATP at Km app, read-out: CSF1R (FMS) inhibition
[10] = read-out: % Inhibition mean CSF1R (FMS)
[11] = 10 μmolar compound concentration, ATP at Km app, read-out: FLT4 (VEGFR3) inhibition
[12] = read-out: % Inhibition mean FLT4 (VEGFR3)

Chain of FGFR1 (P11362 22-822): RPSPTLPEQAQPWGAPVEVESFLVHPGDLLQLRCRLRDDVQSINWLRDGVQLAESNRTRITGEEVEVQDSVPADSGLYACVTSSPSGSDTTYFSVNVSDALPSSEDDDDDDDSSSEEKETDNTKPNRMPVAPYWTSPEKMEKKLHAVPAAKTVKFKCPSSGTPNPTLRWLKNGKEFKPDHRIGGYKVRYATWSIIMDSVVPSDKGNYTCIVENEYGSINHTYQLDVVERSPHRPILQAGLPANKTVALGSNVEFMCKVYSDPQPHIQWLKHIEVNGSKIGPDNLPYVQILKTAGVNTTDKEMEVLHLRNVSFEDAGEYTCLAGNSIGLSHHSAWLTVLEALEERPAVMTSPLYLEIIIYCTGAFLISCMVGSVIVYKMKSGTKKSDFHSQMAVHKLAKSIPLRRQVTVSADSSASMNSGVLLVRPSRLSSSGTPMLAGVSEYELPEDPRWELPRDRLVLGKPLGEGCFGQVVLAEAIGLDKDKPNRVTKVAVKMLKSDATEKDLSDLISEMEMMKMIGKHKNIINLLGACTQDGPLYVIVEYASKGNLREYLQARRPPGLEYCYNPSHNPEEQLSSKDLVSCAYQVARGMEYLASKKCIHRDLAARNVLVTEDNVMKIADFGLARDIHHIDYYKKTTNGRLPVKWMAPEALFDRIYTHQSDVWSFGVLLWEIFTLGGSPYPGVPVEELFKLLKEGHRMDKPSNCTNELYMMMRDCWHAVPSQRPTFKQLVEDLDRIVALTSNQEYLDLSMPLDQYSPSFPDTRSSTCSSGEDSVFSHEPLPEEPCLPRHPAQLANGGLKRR
Chain of FLT4 (VEGFR3) (P35916 25-1363): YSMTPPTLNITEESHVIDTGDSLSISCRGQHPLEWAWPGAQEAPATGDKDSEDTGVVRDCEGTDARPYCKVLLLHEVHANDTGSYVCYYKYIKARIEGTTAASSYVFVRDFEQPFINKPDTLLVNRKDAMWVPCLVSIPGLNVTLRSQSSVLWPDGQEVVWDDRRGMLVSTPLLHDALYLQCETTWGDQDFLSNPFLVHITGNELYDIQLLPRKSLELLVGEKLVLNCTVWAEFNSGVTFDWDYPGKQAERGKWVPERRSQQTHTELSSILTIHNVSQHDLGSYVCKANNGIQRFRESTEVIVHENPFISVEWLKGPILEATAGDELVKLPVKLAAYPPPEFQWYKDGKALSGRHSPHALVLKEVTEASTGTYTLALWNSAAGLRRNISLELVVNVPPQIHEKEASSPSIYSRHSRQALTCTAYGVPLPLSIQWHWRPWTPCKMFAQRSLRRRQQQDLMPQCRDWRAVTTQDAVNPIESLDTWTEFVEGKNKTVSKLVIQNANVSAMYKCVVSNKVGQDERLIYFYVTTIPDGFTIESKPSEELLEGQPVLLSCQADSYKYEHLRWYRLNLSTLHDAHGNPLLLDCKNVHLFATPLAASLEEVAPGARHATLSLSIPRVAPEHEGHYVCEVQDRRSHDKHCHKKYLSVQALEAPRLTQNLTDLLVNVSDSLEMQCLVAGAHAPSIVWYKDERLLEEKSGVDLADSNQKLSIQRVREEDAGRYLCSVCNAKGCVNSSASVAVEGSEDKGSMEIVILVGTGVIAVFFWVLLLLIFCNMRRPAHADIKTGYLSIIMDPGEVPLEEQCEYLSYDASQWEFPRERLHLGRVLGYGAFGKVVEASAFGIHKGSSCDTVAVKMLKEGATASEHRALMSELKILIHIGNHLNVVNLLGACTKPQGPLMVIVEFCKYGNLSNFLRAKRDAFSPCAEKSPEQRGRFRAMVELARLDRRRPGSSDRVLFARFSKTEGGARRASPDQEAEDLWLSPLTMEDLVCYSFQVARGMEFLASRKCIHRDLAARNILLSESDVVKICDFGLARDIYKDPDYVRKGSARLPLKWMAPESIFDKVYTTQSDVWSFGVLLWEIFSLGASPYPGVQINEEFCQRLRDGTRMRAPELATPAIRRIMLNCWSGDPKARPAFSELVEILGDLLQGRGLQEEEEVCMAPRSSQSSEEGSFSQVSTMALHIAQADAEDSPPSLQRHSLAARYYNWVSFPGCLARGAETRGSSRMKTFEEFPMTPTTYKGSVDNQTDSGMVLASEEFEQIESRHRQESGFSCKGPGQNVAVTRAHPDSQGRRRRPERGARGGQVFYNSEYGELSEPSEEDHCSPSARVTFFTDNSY
Chain of LYN B (P07948 1-491 isoform P07948-2): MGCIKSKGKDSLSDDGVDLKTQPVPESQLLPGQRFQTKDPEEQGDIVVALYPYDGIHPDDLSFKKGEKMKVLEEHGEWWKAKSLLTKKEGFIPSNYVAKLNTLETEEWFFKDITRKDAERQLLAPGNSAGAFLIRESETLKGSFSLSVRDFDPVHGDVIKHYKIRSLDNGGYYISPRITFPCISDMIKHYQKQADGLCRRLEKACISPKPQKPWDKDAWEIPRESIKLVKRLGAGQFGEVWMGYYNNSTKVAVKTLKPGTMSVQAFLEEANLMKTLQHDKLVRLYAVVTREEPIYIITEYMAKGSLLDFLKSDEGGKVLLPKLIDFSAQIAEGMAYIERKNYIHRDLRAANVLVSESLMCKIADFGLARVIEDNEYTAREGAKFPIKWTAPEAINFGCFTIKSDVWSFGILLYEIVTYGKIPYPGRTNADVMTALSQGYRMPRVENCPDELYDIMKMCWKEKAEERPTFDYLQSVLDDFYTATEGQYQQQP
Chain of CSF1R (FMS) (P07333 20-972): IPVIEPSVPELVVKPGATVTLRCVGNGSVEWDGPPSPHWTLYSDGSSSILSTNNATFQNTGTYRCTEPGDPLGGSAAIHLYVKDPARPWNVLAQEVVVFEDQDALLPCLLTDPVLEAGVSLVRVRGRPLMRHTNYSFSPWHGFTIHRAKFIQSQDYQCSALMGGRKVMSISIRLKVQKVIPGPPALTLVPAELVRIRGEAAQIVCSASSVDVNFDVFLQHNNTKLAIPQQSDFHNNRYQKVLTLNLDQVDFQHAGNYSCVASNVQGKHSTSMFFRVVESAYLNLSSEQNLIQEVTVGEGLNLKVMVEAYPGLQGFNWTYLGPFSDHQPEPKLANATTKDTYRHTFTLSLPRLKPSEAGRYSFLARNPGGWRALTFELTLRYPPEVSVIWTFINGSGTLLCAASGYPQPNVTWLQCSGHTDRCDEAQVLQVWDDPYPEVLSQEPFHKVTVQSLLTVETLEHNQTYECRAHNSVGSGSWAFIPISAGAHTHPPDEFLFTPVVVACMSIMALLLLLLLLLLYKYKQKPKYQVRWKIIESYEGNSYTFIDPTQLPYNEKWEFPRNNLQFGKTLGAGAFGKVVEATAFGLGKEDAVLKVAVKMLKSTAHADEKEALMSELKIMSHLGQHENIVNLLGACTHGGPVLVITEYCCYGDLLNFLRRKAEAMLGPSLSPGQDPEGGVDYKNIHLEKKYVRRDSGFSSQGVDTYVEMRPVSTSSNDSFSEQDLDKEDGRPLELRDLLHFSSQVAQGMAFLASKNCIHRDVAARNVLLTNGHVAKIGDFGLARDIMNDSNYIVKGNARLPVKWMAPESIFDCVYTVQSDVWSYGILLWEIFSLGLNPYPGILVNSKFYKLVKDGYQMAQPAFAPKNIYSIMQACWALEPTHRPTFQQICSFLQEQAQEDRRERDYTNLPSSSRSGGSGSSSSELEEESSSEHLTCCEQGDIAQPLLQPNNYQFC

SMILES	inhibition at 10 µM [1, 5]	inhibition at 10 µM [1, 6]	inhibition at 10 µM [2, 7]	inhibition at 10 µM [2, 8]	inhibition at 10 µM [3, 9]	inhibition at 10 µM [3, 10]	inhibition at 10 µM [4, 11]	inhibition at 10 µM [4, 12]	inhibition at 10 µM ([1]; read-out: % Inhibition mean)	inhibition at 10 µM ([2]; read-out: % Inhibition mean)	inhibition at 10 µM ([3]; read-out: % Inhibition mean)	inhibition at 10 µM ([4]; read-out: % Inhibition mean)
Cc1cc(F)ccc1-c1cccn2nc(NC3CCc4c(cnn4CC(C)C)C3)nc12 (stereo not drawn) [Example 45, [8-(4-fluoro-2-methyl-phenyl)-[1,2,4]triazolo[1,5-a]pyridine-2-yl]-(1-isobutyl-4,5,6,7-tetrahydro-1H-indazol-5-yl)-amine]	< 40%	9%	< 40%	15%	40 to 80%	40%	< 40%	33%	–	–	–	–
CCCCn1ncc2c1CCC(Nc1nc3c(-c4ccc(F)cc4C)cccn3n1)C2 (stereo not drawn) [Example 46, [8-(4-fluoro-2-methyl-phenyl)-[1,2,4]triazolo[1,5-a]pyridine-2-yl]-(1-butyl-4,5,6,7-tetrahydro-1H-indazol-5-yl)-amine]	< 40%	21%	< 40%	23%	< 40%	24%	< 40%	29%	–	–	–	–
CCn1ncc2c1CCC(Nc1nc3c(-c4ccc(F)cc4)cccn3n1)C2 (stereo not drawn) [Example 55, (1-Ethyl-4,5,6,7-tetrahydro-1H-indazol-5-yl)-[8-(4-fluoro-phenyl)-[1,2,4]triazolo[1,5-a]pyridine-2-yl]-amine]	< 40%	12%	< 40%	27%	< 40%	34%	40 to 80%	42%	–	–	–	–
CCn1ncc2c1CCC(Nc1nc3c(-c4cncc(OC)c4)cccn3n1)C2 (stereo not drawn) [Example 70, (1-Ethyl-4,5,6,7-tetrahydro-1H-indazol-5-yl)-[8-(5-methoxy-pyridin-3-yl)-[1,2,4]triazolo[1,5-a]pyridine-2-yl]-amine]	< 40%	18%	< 40%	22%	> 80%	83%	< 40%	28%	–	–	–	–
CC1(C)NC(=O)c2ccc(Nc3nc4c(-c5cccc(F)c5)cccn4n3)cc21 [Cpd. 302 in WO09155551, reference compound]	> 80%	–	> 80%	–	> 80%	–	> 80%	–	97%	97%	95%	96%
Cc1cc(F)ccc1-c1cccn2nc(NC3CCc4cnn(C)c4C3)nc12 (stereo not drawn) [Example 40, [8-(4-Fluoro-2-methyl-phenyl)-[1,2,4]triazolo[1,5-a]pyridine-2-yl]-(1-methyl-4,5,6,7-tetrahydro-1H-indazol-6-yl)-amine]	< 40%	27%	< 40%	20%	< 40%	25%	< 40%	16%	–	–	–	–
